Data on 30 compounds can be found in patent US10196436B2, “Inhibitors of the fibroblast growth factor receptor” (BLUEPRINT MEDICINES CORPORATION, priority 2012, dated 2019).

For one test, the target named is wild type FGFR-1 (Homo sapiens (Human), UniProt P11362). Briefly: FGFR-1 wild type assay at Km (Caliper electrophoretic mobility shift). In kind it is biochemical. The following applies: 400 uM ATP, 90 minutes, 25 C; read-out: FGFR1 IC50. How it is done:
(§1) In order to assess the activity of chemical compounds against the relevant kinase of interest, the Caliper LifeSciences electrophoretic mobility shift technology platform is utilized. Fluorescently labeled substrate peptide is incubated in the presence dosed levels of compounds, a set concentration of kinase and of ATP, so that a reflective proportion of the peptide is phosphorylated. At the end of the reaction, the mix of phosphorylated (product) and non-phosphorylated (substrate) peptides are passed through the microfluidic system of the Caliper LabChip® EZ Reader II, under an applied potential difference. The presence of the phosphate group on the product peptide provides a difference in mass and charge between the product peptide and the substrate peptide, resulting in a separation of the substrate and product pools in the sample. As the pools pass the LEDS within the instrument, these pools are detected and resolved as separate peaks. The ratio between these peaks therefore reflects the activity of the chemical matter at that concentration in that well, under those conditions.
The reaction was stopped by the addition of 70 ul of Stop buffer (100 mM HEPES pH 7.5, 0.015% Brij 35, 35 mM EDTA and 0.2% of Coating Reagent 3 (Caliper Lifesciences)). The plate was then read on a Caliper EZReader 2 (protocol settings: −1.9 psi, upstream voltage −700, downstream voltage −3000, post sample sip 35 s).

For the next test, the target named is wild type FGFR-4 (Homo sapiens (Human), UniProt P22455). Briefly: FGFR-4 wild type assay at Km (Caliper electrophoretic mobility shift). In kind it is biochemical. The following applies: for Ratio FGFR1/FGFR4: [IC50 for FGFR1]/[IC50 for FGFR4]; for IC50: 400 uM ATP, 90 minutes, 25 C, read-out: FGFR4 IC50. How it is done: as §1
The reaction was stopped by the addition of 70 ul of Stop buffer (100 mM HEPES pH 7.5, 0.015% Brij 35, 35 mM EDTA and 0.2% of Coating Reagent 3 (Caliper Lifesciences)). The plate was then read on a Caliper LabChip® EZ Reader II (protocol settings: −1.9 psi, upstream voltage −700, downstream voltage −3000, post sample sip 35 s).

Molecules are shown by their SMILES.

Sequence of wild type FGFR-1 (P11362 22-822): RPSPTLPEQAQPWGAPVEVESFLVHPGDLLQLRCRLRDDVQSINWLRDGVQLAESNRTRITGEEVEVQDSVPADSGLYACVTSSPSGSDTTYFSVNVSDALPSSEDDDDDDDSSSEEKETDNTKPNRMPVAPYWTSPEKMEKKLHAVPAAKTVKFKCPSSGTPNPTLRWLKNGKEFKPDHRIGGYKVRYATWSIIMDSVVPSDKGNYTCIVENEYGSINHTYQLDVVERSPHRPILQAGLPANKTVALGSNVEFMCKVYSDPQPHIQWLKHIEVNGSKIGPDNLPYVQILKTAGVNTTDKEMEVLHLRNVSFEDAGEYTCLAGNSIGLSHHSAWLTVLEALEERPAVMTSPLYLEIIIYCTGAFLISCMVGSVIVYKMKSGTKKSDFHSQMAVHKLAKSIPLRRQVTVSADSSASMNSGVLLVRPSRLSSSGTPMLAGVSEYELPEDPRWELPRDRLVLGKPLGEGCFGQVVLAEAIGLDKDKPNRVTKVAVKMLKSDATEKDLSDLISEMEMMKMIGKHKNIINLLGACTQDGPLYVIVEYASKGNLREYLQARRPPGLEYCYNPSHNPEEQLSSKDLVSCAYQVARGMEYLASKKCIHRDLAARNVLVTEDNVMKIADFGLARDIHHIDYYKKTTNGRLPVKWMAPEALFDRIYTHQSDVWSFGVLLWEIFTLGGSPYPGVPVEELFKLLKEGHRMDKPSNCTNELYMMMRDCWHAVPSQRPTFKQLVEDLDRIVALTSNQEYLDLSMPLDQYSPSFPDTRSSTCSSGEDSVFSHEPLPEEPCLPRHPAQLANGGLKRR
Sequence of wild type FGFR-4 (P22455 22-802): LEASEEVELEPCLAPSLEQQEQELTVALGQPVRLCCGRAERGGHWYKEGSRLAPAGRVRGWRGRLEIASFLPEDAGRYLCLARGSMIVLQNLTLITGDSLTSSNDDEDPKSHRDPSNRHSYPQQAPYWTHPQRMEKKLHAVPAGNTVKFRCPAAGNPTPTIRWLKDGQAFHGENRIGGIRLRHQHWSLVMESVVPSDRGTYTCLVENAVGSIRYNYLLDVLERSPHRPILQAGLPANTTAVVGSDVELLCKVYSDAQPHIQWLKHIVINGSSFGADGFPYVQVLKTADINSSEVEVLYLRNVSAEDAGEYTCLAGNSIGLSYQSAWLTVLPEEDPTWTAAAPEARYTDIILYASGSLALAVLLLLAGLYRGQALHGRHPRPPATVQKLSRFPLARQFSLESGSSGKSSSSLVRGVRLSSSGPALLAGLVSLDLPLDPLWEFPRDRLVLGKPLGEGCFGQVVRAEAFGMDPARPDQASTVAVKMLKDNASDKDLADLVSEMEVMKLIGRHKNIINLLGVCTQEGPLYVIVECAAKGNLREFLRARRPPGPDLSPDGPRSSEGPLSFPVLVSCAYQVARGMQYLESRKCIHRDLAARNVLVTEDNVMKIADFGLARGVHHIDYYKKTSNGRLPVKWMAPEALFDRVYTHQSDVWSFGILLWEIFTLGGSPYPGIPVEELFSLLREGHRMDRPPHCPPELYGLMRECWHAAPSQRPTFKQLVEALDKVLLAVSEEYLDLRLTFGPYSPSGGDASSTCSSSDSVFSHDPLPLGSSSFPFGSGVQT

Regarding `C=CC(=O)Nc1cc(C)cc(C)c1Nc1ncc2cc(-c3c(Cl)c(OC)cc(OC)c3Cl)ccc2n1` [COMPOUND 28], on wild type FGFR-1, the IC50 was more than 1000 nM.

Turning to `C=CC(=O)N(C)c1ncc2cc(-c3c(Cl)cccc3Cl)ccc2n1` [COMPOUND 2], on wild type FGFR-4, the “Ratio FGFR1/FGFR4” value is “D (the ratio is ≥50 and <100)”. Also, the IC50 on wild type FGFR-1 is more than 1000 nM.

On to `C=CC(=O)Nc1cccc(C)c1Nc1ncc2cc(-c3cc(OC)cc(OC)c3)c(=O)n(C)c2n1` [COMPOUND 19], for which the IC50 on wild type FGFR-1 was more than 1000 nM.

As to `C=CC(=O)Nc1cccc(C)c1Oc1ncc2cc(-c3c(Cl)c(OC)cc(OC)c3Cl)ccc2n1` [COMPOUND 25A], at wild type FGFR-4, the “Ratio FGFR1/FGFR4” value is “D (the ratio is ≥50 and <100)”. For the same compound, the 50% inhibitory concentration (IC50) on wild type FGFR-1 was more than 1000 nM.

As for `C=CC(=O)N(C)c1ncc2c(n1)N(C)C(=O)N(c1c(Cl)c(OC)cc(OC)c1Cl)C2` [COMPOUND 14], the “Ratio FGFR1/FGFR4” value at wild type FGFR-4 was “F (the ratio of [IC50 for FGFR1]/[IC50 for FGFR4] is less than 10)”.

Take `C=CC(=O)Nc1cccc(C)c1Nc1ncc2cc(-c3c(Cl)cccc3Cl)ccc2n1` [COMPOUND 13]: the “Ratio FGFR1/FGFR4” value on wild type FGFR-4 is “D (the ratio is ≥50 and <100)”. Also, the IC50 at wild type FGFR-1 is more than 1000 nM.

On to `C=CC(=O)N(C)c1ncc2c(n1)N(C)C(=O)N(c1cc(OC)cc(OC)c1)C2` [COMPOUND 5], for which the “Ratio FGFR1/FGFR4” value at wild type FGFR-4 was “A (the ratio is >500)”. Further, the IC50 at wild type FGFR-1 was more than 1000 nM.

In the case of `C=CC(=O)Nc1ccccc1Nc1ncc(C)c(N2CCN(C(=O)Nc3ccc(C#N)cc3)CC2)n1` [COMPOUND 23], on wild type FGFR-4, the IC50 lay in the range of 100 to 1000 nM and the “Ratio FGFR1/FGFR4” value is on record as “A (the ratio is >500)”. On wild type FGFR-1, the concentration for half-maximal inhibition (IC50) was more than 1000 nM.

For `C=CC(=O)Nc1ccccc1Nc1cc2nc(NC(=O)NC(C)(C)C)c(-c3cc(OC)cc(OC)c3)cc2cn1` [COMPOUND 44], on wild type FGFR-4, the “Ratio FGFR1/FGFR4” value is “E (the ratio is >10 and <50)”. In addition, the IC50 at wild type FGFR-1 is more than 1000 nM.

`C=CC(=O)Nc1ccccc1Nc1cc2c(cn1)cc(-c1cc(OC)cc(OC)c1)c(=O)n2C` [COMPOUND 15]: the “Ratio FGFR1/FGFR4” value at wild type FGFR-4 is “B (the ratio is ≥200 and <500)”. Besides, the IC50 on wild type FGFR-1 was more than 1000 nM.

Turning to `C=CC(=O)N(C)c1ncc2cc(-c3cc(OC)cc(OC)c3)ccc2n1` [COMPOUND 1], the IC50 at wild type FGFR-4 is 100 to 1000 nM; on wild type FGFR-1, more than 1000 nM. In addition, the “Ratio FGFR1/FGFR4” value on wild type FGFR-4 is “C (the ratio is ≥100 and <200)”.

Consider `C=CC(=O)Nc1cc(F)cc(C)c1Nc1ncc2cc(-c3c(Cl)c(OC)cc(OC)c3Cl)ccc2n1` [COMPOUND 32], for which, on wild type FGFR-4, the 50% inhibitory concentration (IC50) is less than 10 nM; the “Ratio FGFR1/FGFR4” value was “C (the ratio is ≥100 and <200)”. At wild type FGFR-1, the IC50 is more than 1000 nM.

With `C=CC(=O)Nc1cccc(C)c1Nc1ncc(C#Cc2c(Cl)c(OC)cc(OC)c2Cl)cn1` [COMPOUND 24, N-(2-((5-((2,6-dichloro-3,5-dimethoxyphenyl)ethynyl)pyrimidin-2-yl)amino)-3-methylphenyl)acrylamide], the concentration for half-maximal inhibition (IC50) on wild type FGFR-1 is more than 1000 nM.

Turning to `C=CC(=O)Nc1cccc(C)c1Nc1ncc2c(n1)N(C)C(=O)N(c1c(Cl)c(OC)cc(OC)c1Cl)C2` [COMPOUND 48, N-(2-((6-(2,6-dichloro-3,5-dimethoxyphenyl)-8-methyl-7-oxo-5,6,7,8-tetrahydropyrimido[4,5-d]pyrimidin-2-yl)amino)-3-methylphenyl)acrylamide], at wild type FGFR-4, the IC50 was less than 10 nM; the “Ratio FGFR1/FGFR4” value is “E (the ratio is >10 and <50)”.

With `C=CC(=O)Nc1cccc(F)c1Nc1ncc2cc(-c3c(Cl)c(OC)cc(OC)c3Cl)cc(OC)c2n1` [COMPOUND 47], at wild type FGFR-4, the half-inhibitory concentration (IC50) was less than 10 nM; the “Ratio FGFR1/FGFR4” value is “B (the ratio is ≥200 and <500)”.

With `C=CC(=O)Nc1cccc(F)c1Nc1ncc2cc(-c3c(Cl)c(OC)cc(OC)c3Cl)ccc2n1` [COMPOUND 51], the IC50 on wild type FGFR-4 was 10 to 100 nM; at wild type FGFR-1 it was more than 1000 nM. Besides, the “Ratio FGFR1/FGFR4” value at wild type FGFR-4 was “F (the ratio of [IC50 for FGFR1]/[IC50 for FGFR4] is less than 10)”.

With `C=CC(=O)Nc1ccc(F)c(F)c1Nc1ncc2cc(-c3c(Cl)c(OC)cc(OC)c3Cl)ccc2n1` [COMPOUND 37], at wild type FGFR-4, the IC50 was less than 10 nM; the “Ratio FGFR1/FGFR4” value was “C (the ratio is ≥100 and <200)”.

As for `C=CS(=O)(=O)Nc1cccc(C)c1Nc1ncc2cc(-c3c(Cl)c(OC)cc(OC)c3Cl)ccc2n1` [COMPOUND 49A], the “Ratio FGFR1/FGFR4” value at wild type FGFR-4 was “E (the ratio is >10 and <50)”.

On to `C=CC(=O)Nc1cccc(C)c1Nc1ncc2cc(-c3c(Cl)ccc(OC)c3F)ccc2n1` [COMPOUND 17A], for which the “Ratio FGFR1/FGFR4” value at wild type FGFR-4 was “E (the ratio is >10 and <50)”. The concentration for half-maximal inhibition (IC50) at wild type FGFR-1 was more than 1000 nM.

In the case of `C=CC(=O)Nc1ccccc1-c1ccn2c(-c3cccc(NC(=O)NCC(F)(F)F)c3)cnc2c1` [COMPOUND 21, N-(2-(3-(3-(3-(2,2,2-trifluoroethyl)ureido)phenyl)imidazo[1,2-a]pyridin-7-yl)phenyl)acrylamide], on wild type FGFR-1, the IC50 is more than 1000 nM.

On to `C=CC(=O)Nc1cc(F)cc(F)c1Nc1ncc2cc(-c3c(Cl)c(OC)cc(OC)c3Cl)ccc2n1` [COMPOUND 36], for which, on wild type FGFR-4, the “Ratio FGFR1/FGFR4” value is “B (the ratio is ≥200 and <500)”. Also, the IC50 on wild type FGFR-1 is more than 1000 nM.

With `C=CC(=O)Nc1ccccc1Nc1ncc2cc(-c3cc(OC)cc(OC)c3)c(=O)n(C)c2n1` [COMPOUND 16], the IC50 on wild type FGFR-1 is more than 1000 nM.

On to `C=CC(=O)Nc1ccccc1Nc1ncc(Cl)c(N2CCN(C(=O)Nc3cccc(C(F)(F)F)c3)CC2)n1` [COMPOUND 50, 4-(2-((2-acrylamidophenyl)amino)-5-chloropyrimidin-4-yl)-N-(3-(trifluoromethyl)phenyl)piperazine-1-carboxamide], for which the IC50 at wild type FGFR-1 is more than 1000 nM.

For `C=CC(=O)Nc1ccccc1Nc1nccc(N2CCCC(NS(=O)(=O)CCC)C2)n1` (stereo not shown) [COMPOUND 11, N-(2-((4-(3-(propylsulfonamido)piperidin-1-yl)pyrimidin-2-yl)amino)phenyl)acrylamide], on wild type FGFR-1, the IC50 was more than 1000 nM.

Turning to `C=CC(=O)Nc1ccccc1Nc1ncc2cc(-c3c(Cl)c(OC)cc(OC)c3Cl)c(=O)n(C)c2c1C` [COMPOUND 40, N-(2-((3-(2,6-dichloro-3,5-dimethoxyphenyl)-1,8-dimethyl-2-oxo-1,2-dihydro-1,6-naphthyridin-7-yl)amino)phenyl)acrylamide], at wild type FGFR-1, the IC50 is more than 1000 nM.

In the case of `C=CC(=O)N(C)c1ncc2cc(-c3c(Cl)c(OC)cc(OC)c3Cl)c(=O)n(C)c2n1` [COMPOUND 12], on wild type FGFR-4, the IC50 was less than 10 nM; the “Ratio FGFR1/FGFR4” value is “D (the ratio is ≥50 and <100)”.

For the compound `C=CC(=O)Nc1cccc(C)c1Nc1ncc(C#Cc2cc(OC)cc(OC)c2)cn1` [COMPOUND 6, N-(2-((5-((3,5-dimethoxyphenyl)ethynyl)pyrimidin-2-yl)amino)-3-methylphenyl) acrylamide], on wild type FGFR-1, the IC50 is more than 1000 nM.

As for `C=CC(=O)N(C)c1ncc2cc(-c3c(Cl)c(OC)cc(OC)c3Cl)cnc2n1` [COMPOUND 8], at wild type FGFR-4, the concentration for half-maximal inhibition (IC50) is less than 10 nM; the “Ratio FGFR1/FGFR4” value was “E (the ratio is >10 and <50)”.

On to `C=CC(=O)Nc1cccc(C)c1Nc1ncc2cc(-c3c(Cl)c(OC)cc(OC)c3Cl)c(OC)cc2n1` [COMPOUND 42, N-(2-((6-(2,6-dichloro-3,5-dimethoxyphenyl)-7-methoxyquinazolin-2-yl)amino)-3-methylphenyl)acrylamide], for which, on wild type FGFR-4, the IC50 is less than 10 nM and the “Ratio FGFR1/FGFR4” value is “F (the ratio of [IC50 for FGFR1]/[IC50 for FGFR4] is less than 10)”.

For `C=CC(=O)Nc1cc(C(=O)NC2CCN(C)CC2)ccc1Nc1ncc(C)c(N2CCN(C(=O)Nc3ccc(C#N)cc3)CC2)n1` [COMPOUND 54, 4-(2-((2-acrylamido-4-((1-methylpiperidin-4-yl)carbamoyl)phenyl)amino)-5-methylpyrimidin-4-yl)-N-(4-cyanophenyl)piperazine-1-carboxamide], the concentration for half-maximal inhibition (IC50) on wild type FGFR-1 is more than 1000 nM.

Broadly, the IC50 is the point on the concentration scale where inhibition reaches its midpoint.
